The record followed here is patent publication US8658363B2, “Cell, method, and assay kit for measuring level of aryl hydrocarbon receptor transcriptional activation” (priority 2009, dated 2014).

The experiment deals with T1, Ah receptor (Rattus norvegicus, UniProt P41738).
T1 construct: pcDNA4/V5-His B was linked with the coding region of the rat Ah receptor gene; expressed in transfected cells
T1 sequence (P41738 10-853): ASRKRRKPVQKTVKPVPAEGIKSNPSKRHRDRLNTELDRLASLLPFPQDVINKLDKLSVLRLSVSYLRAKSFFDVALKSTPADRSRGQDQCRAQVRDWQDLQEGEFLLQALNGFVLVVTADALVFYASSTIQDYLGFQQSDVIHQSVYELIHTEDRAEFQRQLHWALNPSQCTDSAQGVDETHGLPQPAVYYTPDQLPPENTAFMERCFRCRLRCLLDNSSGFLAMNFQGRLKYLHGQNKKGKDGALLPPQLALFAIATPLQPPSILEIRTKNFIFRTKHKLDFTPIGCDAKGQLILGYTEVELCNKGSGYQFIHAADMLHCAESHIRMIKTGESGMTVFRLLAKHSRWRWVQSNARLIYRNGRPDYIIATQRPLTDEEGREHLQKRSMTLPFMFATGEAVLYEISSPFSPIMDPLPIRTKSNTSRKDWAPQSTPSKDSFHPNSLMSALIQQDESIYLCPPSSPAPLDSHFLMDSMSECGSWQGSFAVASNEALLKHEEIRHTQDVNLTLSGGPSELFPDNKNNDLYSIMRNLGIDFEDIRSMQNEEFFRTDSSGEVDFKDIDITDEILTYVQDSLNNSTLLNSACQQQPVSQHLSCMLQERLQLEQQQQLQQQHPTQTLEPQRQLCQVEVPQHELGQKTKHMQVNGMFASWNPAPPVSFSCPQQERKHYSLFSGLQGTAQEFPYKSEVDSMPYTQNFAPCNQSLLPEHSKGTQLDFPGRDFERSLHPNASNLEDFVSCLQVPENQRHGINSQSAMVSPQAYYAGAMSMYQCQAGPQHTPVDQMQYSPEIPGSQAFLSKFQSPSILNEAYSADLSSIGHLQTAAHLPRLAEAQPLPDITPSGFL
Briefly: Ah receptor transcriptional activation, luciferase reporter in recombinant N2a-SY1 cells. It is filed as cell-based. The settings on record: for N2a-SY1 (magnification of activation) [signal-to-noise ratio] / N2a-SY1 (LUC) compensated value: luciferase luminescence RLU divided by absorbance of β-galactosidase: 24 hours, N2a-SY1 cells. How it is done: The recombinant cells (N2a-SY1) produced in Example 4 were seeded on a 24-well plate with about 80,000 cells per well and then cultured in a […] medium of 10% serum for several hours to overnight.
Next, the medium of the recombinant cell cultured in the above manner was aspirated to remove it, and DF 1:1 mediums of 10% serum which contained a 2,3,7,8-TCDD in concentrations of 0, 0.1, 1, 10, 100 and 1000 pg/mL, respectively were each dispensed in each well with 1 mL per well to culture cells. The culturing of cells was continued, the medium was removed after 24 hours and the cells were washed once with PBS 1 mL per well. Then, 200 μL per well of a PicaGene Cell Culture Lysis Reagent Luβ (manufactured by Toyo B-Net Co., Ltd.) diluted five times was added to each well, which was then allowed to stand at room temperature for 10 minutes or more to dissolve, thereby obtaining a cell extract. The obtained cell extract was frozen-stored in a freezing chamber, this frozen-stored plate was taken out of the freezing chamber, and the cell extract was fused at room temperature. 10 μL of the fused cell extract was transferred to a black 96-well plate. Then, 100 μL per well of a PicaGene (trademark) LT210 luminescence substrate solution was dispensed in each well of the plate and mixed and then, the plate was set to a Mithras LB940 Microplate Reader (manufactured by Berthold Japan K.K.) to measure a luminescence amount continuously. Separately, 10 μL of the above cell extract was transferred to a transparent 96-well plate. 150 μL of a β-galactosidase substrate solution (ONPG substrate solution) was added to each well of the plate, which was incubated at room temperature for 5 minutes, and then, 50 μL of a reaction stop solution (aqueous […] sodium carbonate solution) was added to each well. Then, the plate was set to a micro-plate reader to measure absorbance of each well at 405 nm. Using a standard curve, the absorbance was converted into the amount of β-galactosidase (ng) in the protein extract. The results are shown by a bar graph in FIG. 4, and also in Table 1 showing each value (in the table, each value is a compensated value calculated by dividing the luminescence relative light units (RLU) of luciferase by the absorbance of β-galactosidase and bB/A means the magnification of activation [signal-to-noise ratio]).
The stable recombinant cells (N2a-SY1) produced in Example 4 were seeded on a 24-well plate with about 80,000 cells per well and cultured in a DF 1:1 medium of 10% serum for several hours to overnight.
Next, the medium of the recombinant cell cultured in the above manner was aspirated to remove it, and DF 1:1 mediums of 10% serum which contained PCB126 at concentrations of 0, 0.2, 2, 20, 200, 2000, and 20000 pg/mL respectively were dispensed in each well with 1 mL per well to culture cells. The culturing of cells was continued, the medium was removed after 24 hours and the cells were washed once with PBS 1 mL per well. Then, 200 μL per well of a PicaGene Cell Culture Lysis Reagent Luβ (manufactured by Toyo B-Net Co., Ltd.) diluted five times was added to each well, which was then allowed to stand at room temperature for 10 minutes or more to dissolve, thereby obtaining a cell extract. The obtained cell extract was frozen-stored in a freezing chamber, this frozen-stored plate was taken out of the freezing chamber, and the cell extract was fused at room temperature. 10 μL of the fused cell extract was transferred to a black 96-well plate. Then, 100 μL per well of a PicaGene (trademark) LT210 luminescence substrate solution was dispensed in each well of the plate and mixed and then, the plate was set to a Mithras LB940 Microplate Reader (manufactured by Berthold Japan K.K.) to measure a luminescence amount continuously. Separately, 10 μL of the above cell extract was transferred to a transparent 96-well plate. […]
A general note: Reporter assays use an easily measured gene product as a stand-in for the process of interest.

As to `Clc1cc2c(cc1Cl)Oc1cc(Cl)c(Cl)cc1O2` [2,3,7,8-TCDD], the “N2a-SY1 (magnification of activation) [signal-to-noise ratio]” value (“N2a-SY1 … [signal-to-noise ratio]” for short) worked out at 1 (2,3,7,8-TCDD 0.01 pg/ml vs 0 pg/ml); 1.24 (2,3,7,8-TCDD 0.1 pg/ml vs 0 pg/ml); 1.34 (2,3,7,8-TCDD 1 pg/ml vs 0 pg/ml); 3.43 (2,3,7,8-TCDD 10 pg/ml vs 0 pg/ml); 4.88 (2,3,7,8-TCDD 100 pg/ml vs 0 pg/ml); 5.22 (2,3,7,8-TCDD 1000 pg/ml vs 0 pg/ml). In addition, the “N2a-SY1 (LUC) compensated value: luciferase luminescence RLU divided by absorbance of β-galactosidase” value was 1187.8 (2,3,7,8-TCDD 0.01 pg/ml); 1451.5 (2,3,7,8-TCDD 0.1 pg/ml); 1577.6 (2,3,7,8-TCDD 1 pg/ml); 4029.7 (2,3,7,8-TCDD 10 pg/ml); 5718.5 (2,3,7,8-TCDD 100 pg/ml); 6132.5 (2,3,7,8-TCDD 1000 pg/ml). Besides, the “concentration in a sample that may be detected (Ah receptor transcriptional activation)” value (recombinant cell of the embodiment) was determined as 0.1 pg/mL.
For the compound `Clc1ccc(-c2cc(Cl)c(Cl)c(Cl)c2)cc1Cl` [PCB126], the “N2a-SY1 … [signal-to-noise ratio]” value worked out at 0.91 (PCB126 0.2 pg/ml vs 0 pg/ml); 1.15 (PCB126 2 pg/ml vs 0 pg/ml); 1.92 (PCB126 20 pg/ml vs 0 pg/ml); 2.74 (PCB126 200 pg/ml vs 0 pg/ml); 3.08 (PCB126 2000 pg/ml vs 0 pg/ml); 3.02 (PCB126 20000 pg/ml vs 0 pg/ml). Besides, the “N2a-SY1 … [signal-to-noise ratio]” value (PCB126 200000 pg/ml vs 0 pg/ml) came to 3.02. Besides, the “N2a-SY1 (LUC) compensated value: luciferase luminescence RLU divided by absorbance of β-galactosidase” value by setting is: (PCB126 0.2 pg/ml) 1882.6; (PCB126 2 pg/ml) 2388; (PCB126 20 pg/ml) 3991; (PCB126 200 pg/ml) 5685.8; (PCB126 2000 pg/ml) 6401.6; (PCB126 20000 pg/ml) 6264.8. The “N2a-SY1 (LUC) compensated value: luciferase luminescence RLU divided by absorbance of β-galactosidase” value (PCB126 200000 pg/ml) was 6268.9.
